Laboratory results taken from patent US20250230138A1, “COMPOUNDS HAVING A T-STRUCTURE FORMED BY AT LEAST FOUR CYCLES FOR USE IN THE TREATMENT OF CANCER AND OTHER INDICATIONS” (TheRas, Inc., priority 2022, published 2025).
Like-named read-outs stand apart in the source and are kept apart here.

Assays:
[1] = target: Cys242 in human PIK3CA (157-299) (Homo sapiens (Human), UniProt P42336); assay: Covalent modification assay using MALDI-TOF MS; assay type: biochemical; conditions: 4 h reaction time point
Sequence of Cys242 in human PIK3CA (157-299) (P42336 157-299): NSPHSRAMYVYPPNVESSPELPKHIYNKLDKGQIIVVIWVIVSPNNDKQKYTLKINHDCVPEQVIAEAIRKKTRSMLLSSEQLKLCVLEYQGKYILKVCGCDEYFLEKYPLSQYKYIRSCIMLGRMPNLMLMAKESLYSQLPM
Method in brief: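 Covalent adduct formation was read by linear-mode MALDI-TOF with sinapinic acid matrix, reported as modified-protein peak height divided by total protein peak heights. Reactions held PIK3CA (157-299) at 1 or 3.33 μM in HEPES/NaCl/MgCl2 buffer, pH 7.3, sampled after 15 min to 4 h at room temperature.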

pAKT in BT474 cells = assay: Cell-based pAKT HTRF assay in BT474 cells; conditions: BT474 cells, 4 hr incubation, Compounds 10-999, read-out: pAKT inhibition IC50 in BT474 cells
Method in brief: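 9-pt curve, top 3 μM, 3-fold steps, 0.25% DMSO; 4 hr compound exposure. Lysis, then HTRF with d2/Eu Cryptate antibody pair, 4–24 h RT. Ex 320 nm, Em 615 nm.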

[2] = 3.33 μM protein target, 1:7.5 protein to compound ratio (compounds 1-852)
[3] = 1 μM protein target, 1:5 protein to compound ratio (compounds 853-1279)

| SMILES | % of modification [1, 2] | IC50 (pAKT in BT474 cells) [nM] | IC50 (pAKT in BT474 cells; Homo sapiens, BT-474) [nM] | % of modification [1, 3] |
| --- | --- | --- | --- | --- |
| C=CC(=O)N1Cc2cc(-c3nc(-c4ccc5c(c4)CCS5(=O)=O)c4ccsc4c3-c3c(F)cc(F)cc3OCCOC)nn2C[C@H]1C [Compound 794] | A (percent of modification of PIK3CA protein ≥75%) | > 3000 |  |  |
| C=CC(=O)N1Cc2cc(-c3nc(-c4ccc5c(c4)CN(C)C5=O)c4ccsc4c3-c3c(F)cc(F)cc3OCCOC)nn2C[C@H]1C [Compound 795] | A (percent of modification of PIK3CA protein ≥75%) | < 100 |  |  |
| C=CC(=O)N1Cc2cc(-c3nc(-c4cnc5c(cnn5C)c4)c4ccsc4c3-c3c(F)cc(F)cc3OCCOC)nn2C[C@H]1C [Compound 797] | A (percent of modification of PIK3CA protein ≥75%) | < 100 |  |  |
| C=CC(=O)N1Cc2cc(-c3nc(-c4ccc(P(C)(C)=O)cc4)c4ccsc4c3-c3c(F)cc(F)cc3OCCOC)nn2C[C@H]1C [Compound 800, 1-[(6R)-2-[7-[2,4-difluoro-6-(2-methoxyethoxy)phenyl]-4-(4-dimethylphosphorylphenyl)thieno[3,2-c]pyridin-6-yl]-6-methyl-6,7-dihydro-4H-pyrazolo[1,5-a]pyrazin-5-yl]prop-2-en-1-one] | A (percent of modification of PIK3CA protein ≥75%) |  | < 100 |  |
| C=CC(=O)N1Cc2cc(-c3nc(-c4cnc5cn(C)nc5c4)c4ccsc4c3-c3c(F)cc(F)cc3OCCOC)nn2C[C@H]1C [Compound 818] | A (percent of modification of PIK3CA protein ≥75%) | < 100 |  |  |
| C=CC(=O)N1Cc2cc(-c3nc(-c4cn(C)cn4)c4ccsc4c3-c3c(F)cc(F)cc3OCCO)nn2[C@@H](C)C1 [Compound 819] | A (percent of modification of PIK3CA protein ≥75%) | < 100 |  |  |
| C=CC(=O)N1Cc2cc(-c3nc(-c4cnn(C)c4)c4ccsc4c3-c3c(F)cc(F)cc3OC)nn2C[C@H]1C [Compound 820] | A (percent of modification of PIK3CA protein ≥75%) | < 100 |  |  |
| C=CC(=O)N1Cc2cc(-c3nc(-c4ccc5nn(C)cc5c4)c4ccsc4c3-c3c(F)cc(F)cc3OC)nn2C[C@H]1C [Compound 821] | A (percent of modification of PIK3CA protein ≥75%) | < 100 |  |  |
| C=CC(=O)N1Cc2cc(-c3nc(-c4nc(C)no4)c4ccsc4c3-c3c(F)cc(F)cc3OCCOC)nn2C[C@H]1C [Compound 822] | A (percent of modification of PIK3CA protein ≥75%) | < 100 |  |  |
| C=CC(=O)N1CCn2nc(-c3nc(-c4cnnc(C)c4)c4ccsc4c3-c3c(F)cc(F)cc3OCC(C)O)cc2C1C (stereo not drawn) [Compound 823] | A (percent of modification of PIK3CA protein ≥75%) | < 100 |  |  |
| C=CC(=O)N1Cc2cc(-c3nc(-n4cnc(C)c4)c4ccsc4c3-c3c(F)cc(F)cc3OCCOC)nn2C[C@H]1C [Compound 824] | A (percent of modification of PIK3CA protein ≥75%) | < 100 |  |  |
| C=CC(=O)N1Cc2cc(-c3nc(-c4cnc5oc(C)nc5c4)c4ccsc4c3-c3c(F)cc(F)cc3OCCOC)nn2C[C@H]1C [Compound 825] | A (percent of modification of PIK3CA protein ≥75%) | < 100 |  |  |
| C=CC(=O)N1Cc2cc(-c3nc(-c4cnnc(C)c4)c4ccsc4c3-c3c(F)cc(F)cc3OCCO)nn2CC1C (stereo not drawn) [Compound 829] | A (percent of modification of PIK3CA protein ≥75%) | < 100 |  |  |
| C=CC(=O)N1Cc2cc(-c3nc(-c4cnc(C)nc4)c4ccsc4c3-c3c(F)cc(F)cc3OCCO)nn2CC1C (stereo not drawn) [Compound 831] | A (percent of modification of PIK3CA protein ≥75%) | < 100 |  |  |
| C=CC(=O)N1Cc2cc(-c3nc(-c4ccc5nn(C)cc5c4)c4ccsc4c3-c3c(F)cc(F)cc3OCCO)nn2CC1C (stereo not drawn) [Compound 832] | A (percent of modification of PIK3CA protein ≥75%) | < 100 |  |  |
| C=CC(=O)N1CCn2nc(-c3nc(-c4cn(C)cn4)c4ccsc4c3-c3c(F)cc(F)cc3OCC(C)O)cc2C1C (stereo not drawn) [Compound 833] | A (percent of modification of PIK3CA protein ≥75%) | < 100 |  |  |
| C=CC(=O)N1Cc2cc(-c3nc(-c4ccc5c(c4)C(=O)NC5)c4ccsc4c3-c3c(F)cc(F)cc3OC)nn2C[C@H]1C [Compound 837] | A (percent of modification of PIK3CA protein ≥75%) | < 100 |  |  |
| C=CC(=O)N1Cc2cc(-c3nc(-c4ccnc(N(C)C)c4)c4ccsc4c3-c3c(F)cc(F)cc3OCCOC)nn2C[C@H]1C [Compound 839] | A (percent of modification of PIK3CA protein ≥75%) | < 100 |  |  |

| SMILES | % of modification [1, 2] | IC50 (pAKT in BT474 cells) [nM] | IC50 (pAKT in BT474 cells; Homo sapiens, BT-474) [nM] | % of modification [1, 3] |
| --- | --- | --- | --- | --- |
| C=CC(=O)N1Cc2cc(-c3nc(-c4cnccn4)c4ccsc4c3-c3c(F)cc(F)cc3OCCOC)nn2C[C@H]1C [Compound 840] | A (percent of modification of PIK3CA protein ≥75%) | < 100 |  |  |
| C=CC(=O)N1Cc2cc(-c3nc(-c4ccc5c(c4)CCN(C)CC5)c4ccsc4c3-c3c(F)cc(F)cc3OCCOC)nn2C[C@H]1C [Compound 841] | A (percent of modification of PIK3CA protein ≥75%) | < 100 |  |  |
| C=CC(=O)N1Cc2cc(-c3nc(-c4ccc5ncn(C)c(=O)c5c4)c4ccsc4c3-c3c(F)cc(F)cc3OCCOC)nn2C[C@H]1C [Compound 842] | A (percent of modification of PIK3CA protein ≥75%) | < 100 |  |  |
| C=CC(=O)N1Cc2cc(-c3nc(-c4cn(C)cn4)c4ccsc4c3-c3c(F)cc(F)cc3OC)nn2C[C@H]1C [Compound 843] | A (percent of modification of PIK3CA protein ≥75%) | < 100 |  |  |
| C=CC(=O)N1Cc2cc(-c3nc(-c4ccc5cn(C)nc5c4)c4ccsc4c3-c3c(F)cc(F)cc3OC)nn2C[C@H]1C [Compound 844] | A (percent of modification of PIK3CA protein ≥75%) | < 100 |  |  |
| C=CC(=O)N1CCn2nc(-c3nc(-c4ccc5c(c4)C(=O)NC5)c4ccsc4c3-c3c(F)cc(F)cc3OCCOC)cc2[C@H]1C [Compound 845, 6-((S)-6-((R)-5-acryloyl-4-methyl-4,5,6,7-tetrahydropyrazolo[1,5-a]pyrazin-2-yl)-7-(2,4-difluoro-6-(2-methoxyethoxy)phenyl)thieno[3,2-c]pyridin-4-yl)isoindolin-1-one] | A (percent of modification of PIK3CA protein ≥75%) |  | < 100 |  |
| C=CC(=O)N1CCn2nc(-c3nc(-c4ccc5c(c4)C(=O)N(C)C5)c4ccsc4c3-c3c(F)cc(F)cc3OCCOC)cc2[C@H]1C [Compound 846] | A (percent of modification of PIK3CA protein ≥75%) | < 100 |  |  |
| C=CC(=O)N1Cc2cc(-c3nc(-c4ccc5nn(C)cc5c4)c4ccsc4c3-c3c(F)cc(F)cc3OC)nn2[C@@H](C)C1 [Compound 847] | A (percent of modification of PIK3CA protein ≥75%) | < 100 |  |  |
| C=CC(=O)N1Cc2cc(-c3nc(-c4ccc5c(cnn5C)c4)c4ccsc4c3-c3c(F)cc(F)cc3OCC(C)(C)O)nn2[C@@H](C)C1 [Compound 848] | A (percent of modification of PIK3CA protein ≥75%) | < 100 |  |  |
| C=CC(=O)N1Cc2cc(-c3nc(-c4ccc5c(=O)n(C)ncc5c4)c4ccsc4c3-c3c(F)cc(F)cc3OCCOC)nn2C[C@H]1C [Compound 849] | A (percent of modification of PIK3CA protein ≥75%) | < 100 |  |  |
| C=CC(=O)N1Cc2cc(-c3nc(-c4cc(C)ncn4)c4ccsc4c3-c3c(F)cc(F)cc3OCCOC)nn2CC1C (stereo not drawn) [Compound 850] | A (percent of modification of PIK3CA protein ≥75%) | < 100 |  |  |
| C=CC(=O)N1Cc2cc(-c3nc(-c4ncn(C)n4)c4ccsc4c3-c3c(F)cc(F)cc3OCCOC)nn2CC1C (stereo not drawn) [Compound 851] | A (percent of modification of PIK3CA protein ≥75%) | < 100 |  |  |
| C=CC(=O)N1CCn2nc(-c3nc(-c4ccc5c(c4)C(=O)NC5)c4ccsc4c3-c3c(F)cc(F)cc3OCCO)cc2[C@H]1C [Compound 852, 6-((S)-6-((R)-5-acryloyl-4-methyl-4,5,6,7-tetrahydropyrazolo[1,5-a]pyrazin-2-yl)-7-(2,4-difluoro-6-(2-hydroxyethoxy)phenyl)thieno[3,2-c]pyridin-4-yl)isoindolin-1-one] | A (percent of modification of PIK3CA protein ≥75%) |  | < 100 |  |
| C=CC(=O)N1Cc2cc(-c3nc(-c4ccc5cnncc5c4)c4ccsc4c3-c3c(F)cc(F)cc3OCCO)nn2CC1C (stereo not drawn) [Compound 853] |  | < 100 |  | A (percent of modification of PIK3CA protein ≥75%) |
| C=CC(=O)N1Cc2cc(-c3nc(-c4ccc5c(cnn5C)c4)c4ccsc4c3-c3c(F)cc(F)cc3OC)nn2C(C)C1 (stereo not drawn) [Compound 854] |  | < 100 |  | A (percent of modification of PIK3CA protein ≥75%) |
| C=CC(=O)N1Cc2cc(-c3nc(-c4ccc(N(C)C)nc4)c4ccsc4c3-c3c(F)cc(F)cc3OCCOC)nn2CC1C (stereo not drawn) [Compound 855] |  | < 100 |  | A (percent of modification of PIK3CA protein ≥75%) |
| C=CC(=O)N1Cc2cc(-c3nc(-c4ccc5ncc(=O)n(C)c5c4)c4ccsc4c3-c3c(F)cc(F)cc3OCCOC)nn2CC1C (stereo not drawn) [Compound 856] |  | < 100 |  | A (percent of modification of PIK3CA protein ≥75%) |
| C=CC(=O)N1Cc2cc(-c3nc(N4CCC(N(C)C)CC4)c4ccsc4c3-c3c(F)cc(F)cc3OCCOC)nn2CC1C (stereo not drawn) [Compound 857] |  | < 100 |  | A (percent of modification of PIK3CA protein ≥75%) |
